Patent US20110237686A1, “FORMULATIONS AND METHODS OF USE” (Cerulean Pharma Inc, priority 2010, published 2011)
“And” between values parts separate entries of the source, which are not always exact repeats. Equal entries are not always repeated.

How the values were obtained:
Assay type in all cases: physicochemical
[1] = Simple lyophilization of PLGA7K-PVA-PEG2K-30 and PLGA7K-PVA-PEG5K-30 PEGylated nanoparticle formulations; settings: 2K PEG PLGA nanoparticles 20 mg/mL, cryoprotectant 20 mg/mL (1:1 w/w)
Source text: The results are similar to that obtained for PEGylated nanoparticles A except for SB-β-CD. The result from SB-β-CD supported the H-bonding mechanism for cryoprotection of PEGylated PLGA nanoparticles since SB-β-CD has less hydroxyl groups than α-CD, γ-CD and HP-β-CD (about ⅓ of —OH groups of β-CD are substituted by sulfobutyl groups).

[2] = Lyophilization using HP-β-CD, freezing with liquid nitrogen and vacuum at room temperature; settings: PEGylated nanoparticles A, polymer 31.25 mg/mL, vacuum at room temperature;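 note: cyclodextrins or their derivatives tested as cryoprotectant during lyophilization of PEGylated nanoparticles, assessing particle size growth attributed to PEG crystallization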
Protocol: In this example, a new strategy of using cyclodextrins and their derivatives as a cryoprotectant was tested. […] A cryoprotectant is needed to lyophilize liquid formulation that contain PEGylated nanoparticles A (Entries #1 and #2).

[3] = Lyophilization using other cyclodextrins; settings: for Dv90 / PDI / Zave / Filtration Potency Loss: post lyophilization
Protocol: Other CDs were also evaluated at the similar weight ratio of cryoprotectant/nanoparticle.

[4] = Cryoprotectant screen, sucrose lyophilization cycle; settings: PEGylated nanoparticles A; for Dv90 / PDI / Zave: reconstituted
Protocol: A cryoprotectant screen was performed as follows.
These conditions are shown below in Table 21.

[5] = Lyophilization of stealth liposome (Doxil); settings: lipids 16 mg/mL, cryoprotectant 40 mg/mL (2.5:1 w/w lipid), HP-β-CD lyophilization cycle, post lyophilization
[6] = cryoprotectant 15 mg/mL (0.48:1 w/w)
[7] = PEGylated nanoparticles A, polymer 31.25 mg/mL, CD 40 mg/mL (1.28:1 w/w)
[8] = polymer 31.25 mg/mL (Doce. 1.5), cryoprotectant 100 mg/mL (3.2:1 w/w)
[9] = polymer 31.25 mg/mL, cryoprotectant 30 mg/mL (0.96:1 w/w)
[10] = cryoprotectant 20 mg/mL (0.64:1 w/w)
[11] = cryoprotectant 40 mg/mL (1.28:1 w/w)
[12] = cryoprotectant 40 mg/mL (1.28:1 w/w), listed as HP-beta-CD
[13] = cryoprotectant 60 mg/mL (1.92:1 w/w)
[14] = cryoprotectant 80 mg/mL (2.56:1 w/w)
[15] = SB-β-CD 40 mg/mL, polymer 28.87 mg/mL (Doce. 1.94), 1.39:1 w/w
[16] = SB-β-CD 60 mg/mL, polymer 28.87 mg/mL (Doce. 1.94), 2.08:1 w/w
[17] = polymer 10.42 mg/mL (Doce. 0.50), cryoprotectant 100 mg/mL (9.6:1 w/w)
[18] = polymer 20.83 mg/mL (Doce. 1.00), cryoprotectant 100 mg/mL (4.8:1 w/w)
[19] = polymer 26.05 mg/mL (Doce. 1.25), cryoprotectant 100 mg/mL (3.8:1 w/w)
[20] = polymer 31.25 mg/mL, cryoprotectant 20 mg/mL (0.64:1 w/w)
[21] = polymer 31.25 mg/mL, cryoprotectant 60 mg/mL (1.92:1 w/w)
[22] = polymer 31.25 mg/mL, cryoprotectant 200 mg/mL (6.4:1 w/w)
[23] = polymer 31.25 mg/mL, cryoprotectant 300 mg/mL (9.6:1 w/w)

Compound: OC[C@H]1O[C@@H]2O[C@H]3[C@H](O)[C@@H](O)[C@@H](O[C@H]4[C@H](O)[C@@H](O)[C@@H](O[C@H]5[C@H](O)[C@@H](O)[C@@H](O[C@H]6[C@H](O)[C@@H](O)[C@@H](O[C@H]7[C@H](O)[C@@H](O)[C@@H](O[C@H]1[C@H](O)[C@H]2O)O[C@@H]7CO)O[C@@H]6CO)O[C@@H]5CO)O[C@@H]4CO)O[C@@H]3CO [α-CD, α-cyclodextrin]
- Dv90 [1]: 139 nm
- PDI [1]: 0.087
- Zave [1]: 101.0 nm
- Dv90 [2, 6]: 122 nm
- Filtration Loss [2, 6]: 8%
- PDI [2, 6]: 0.088
- Reconstituted Solution appearance [2, 6]: good
- Zave [2, 6]: 92.05 nm
- Dv90 [3, 7]: 121 nm
- PDI [3, 7]: 0.070
- Zave [3, 7]: 92.06 nm

Compound: OC[C@@H](O)[C@@H](O)[C@H](O)[C@H](O)CO [Mannitol, mannitol]
- outcome after lyophilization (in place of particle size) [1]: Precipitated
- Lyophilized preparation Appearance [4, 8]: some
- Recon. Solution Appearance [4, 8]: cloudy
- Dv90 [4, 8]: 2540 nm
- PDI [4, 8]: 0.544
- Zave [4, 8]: 472.7 nm
- Lyophilized preparation Appearance [4, 9]: good
- Recon. Solution Appearance [4, 9]: precipitation
- Dv90 [4, 9]: 340 nm
- PDI [4, 9]: 0.638
- Zave [4, 9]: 499.2 nm

Compound: 2-hydroxypropyl-β-cyclodextrin [HP-β-CD]
- Dv90 [5]: 119 nm
- PDI [5]: 0.071
- Zave [5]: 90.32 nm
- Dv90 [2, 10]: 121 nm
- PDI [2, 10]: 0.095
- Reconstituted Solution appearance [2, 10]: some
- Zave [2, 10]: 90.93 nm
- Reconstituted Solution appearance [2, 11]: good
- Dv90 [2, 12]: 118 nm and 119 nm
- PDI [2, 12]: 0.077 and 0.075
- Zave [2, 12]: 89.43 nm and 90.66 nm
- Dv90 [2, 13]: 119 nm
- PDI [2, 13]: 0.089
- Reconstituted Solution appearance [2, 13]: good
- Zave [2, 13]: 89.84 nm
- Dv90 [2, 14]: 119 nm
- PDI [2, 14]: 0.095
- Reconstituted Solution appearance [2, 14]: good
- Zave [2, 14]: 90.60 nm
- Dv90 [3, 7]: 119 nm
- PDI [3, 7]: 0.075
- Zave [3, 7]: 90.66 nm

Compound: OC[C@H]1O[C@@H]2O[C@H]3[C@H](O)[C@@H](O)[C@@H](O[C@H]4[C@H](O)[C@@H](O)[C@@H](O[C@H]5[C@H](O)[C@@H](O)[C@@H](O[C@H]6[C@H](O)[C@@H](O)[C@@H](O[C@H]7[C@H](O)[C@@H](O)[C@@H](O[C@H]8[C@H](O)[C@@H](O)[C@@H](O[C@H]1[C@H](O)[C@H]2O)O[C@@H]8CO)O[C@@H]7CO)O[C@@H]6CO)O[C@@H]5CO)O[C@@H]4CO)O[C@@H]3CO [β-CD, β-cyclodextrin]
- solubility of the lyoprotectant in the formulation ([3]; CD 40 mg/mL): Beta-CD is not soluble at this

Compound: β-cyclodextrin sulfobutylether [SB-β-CD]
- outcome after lyophilization (in place of particle size) [1]: Precipitated
- Dv90 [3, 15]: 149 nm
- Filtration Potency Loss [3, 15]: 2%
- Zave [3, 15]: 106.9 nm
- Dv90 [3, 16]: 151 nm
- Filtration Potency Loss [3, 16]: 8%
- Zave [3, 16]: 108.5 nm

Compound: OC[C@H]1O[C@H](O[C@H]2O[C@H](CO)[C@@H](O)[C@H](O)[C@H]2O)[C@H](O)[C@@H](O)[C@@H]1O [Trehalose, trehalose]
- outcome after lyophilization (in place of particle size) [1]: Precipitated
- Lyophilized preparation Appearance [4, 17]: good
- Recon. Solution Appearance [4, 17]: slight
- Dv90 [4, 17]: 160 nm
- PDI [4, 17]: 0.0166
- Zave [4, 17]: 108.1 nm
- Lyophilized preparation Appearance [4, 18]: good
- Recon. Solution Appearance [4, 18]: cloudy
- Dv90 [4, 18]: 189 nm
- PDI [4, 18]: 0.725
- Zave [4, 18]: 606.5 nm
- Lyophilized preparation Appearance [4, 19]: good
- Recon. Solution Appearance [4, 19]: cloudy
- Dv90 [4, 19]: 379 nm
- PDI [4, 19]: 0.372
- Zave [4, 19]: 259.1 nm
- Lyophilized preparation Appearance [4, 8]: good
- Recon. Solution Appearance [4, 8]: cloudy
- Dv90 [4, 8]: 286 nm
- PDI [4, 8]: 0.417
- Zave [4, 8]: 294.2 nm
- Lyophilized preparation Appearance [4, 20]: good
- Recon. Solution Appearance [4, 20]: precipitation
- Dv90 [4, 20]: 188 nm
- PDI [4, 20]: 0.381
- Zave [4, 20]: 236.1 nm
- Lyophilized preparation Appearance [4, 21]: good
- Recon. Solution Appearance [4, 21]: cloudy
- Dv90 [4, 21]: 169 nm
- PDI [4, 21]: 0.464
- Zave [4, 21]: 276.9 nm
- Lyophilized preparation Appearance [4, 22]: good
- Recon. Solution Appearance [4, 22]: slight
- Dv90 [4, 22]: 186 nm
- PDI [4, 22]: 0.348
- Zave [4, 22]: 192.2 nm
- Lyophilized preparation Appearance [4, 23]: good
- Recon. Solution Appearance [4, 23]: slight
- Dv90 [4, 23]: 205 nm
- PDI [4, 23]: 0.325
- Zave [4, 23]: 154.8 nm
- Dv90 [2, 11]: 130 nm
- PDI [2, 11]: 0.260
- Reconstituted Solution appearance [2, 11]: precipitation
- Zave [2, 11]: 114.1 nm

Compound: OC[C@H]1O[C@@H](O[C@H]2[C@H](O)[C@@H](O)C(O)O[C@@H]2CO)[C@H](O)[C@@H](O)[C@H]1O (stereo partly drawn) [Lactose, lactose]
- Lyophilized preparation Appearance [4, 8]: some
- Recon. Solution Appearance [4, 8]: cloudy
- Dv90 [4, 8]: 178 nm
- PDI [4, 8]: 0.352
- Zave [4, 8]: 183.2 nm

Compound: OC[C@H]1O[C@@H]2O[C@H]3[C@H](O)[C@@H](O)[C@@H](O[C@H]4[C@H](O)[C@@H](O)[C@@H](O[C@H]5[C@H](O)[C@@H](O)[C@@H](O[C@H]6[C@H](O)[C@@H](O)[C@@H](O[C@H]7[C@H](O)[C@@H](O)[C@@H](O[C@H]8[C@H](O)[C@@H](O)[C@@H](O[C@H]9[C@H](O)[C@@H](O)[C@@H](O[C@H]1[C@H](O)[C@H]2O)O[C@@H]9CO)O[C@@H]8CO)O[C@@H]7CO)O[C@@H]6CO)O[C@@H]5CO)O[C@@H]4CO)O[C@@H]3CO [γ-CD, γ-cyclodextrin]
- Dv90 [1]: 139 nm
- PDI [1]: 0.080
- Zave [1]: 101.8 nm
- Dv90 [3, 7]: 121 nm
- PDI [3, 7]: 0.097
- Zave [3, 7]: 91.06 nm
